{"source": "patent US7041701B2", "about": "“Triterpenoid derivatives” (Univerzita Palackeho V Olomouci, priority 2000, dated 2006)", "key": {"[1]": {"system": "SW620 human colon cancer, metastasis", "test": "MTT cytotoxicity assay, SW620", "type": "cell-based", "conditions": "72 hours, read-out: TCS50", "description": "(§1) One of the parameters used as the basis for colorimetric assays is the metabolic activity of viable cells. For example, a microtiter assay which uses the tetrazolium salt MTT is now widely used to quantitate cell proliferation and cytotoxicity [Hajdúch M, Mihál V, Minarík J, Fáber E, Safárová M, Weigl E, Antálek P.: Cytotechnology, 1996, 19, 243–245]. For instance, this assay is used in drug screening programs and in chemosensitivity testing. Because tetrazolium salts are cleaved only by metabolically active cells, these assays exclusively detect viable cells. In the case of the MTT assay, yellow soluble tetrazolium salt is reduced to a coloured water-insoluble formazan salt. After it is solubilized, the formazan formed can easily and rapidly be quantified in a conventional ELISA plate reader at 570 nm (maximum absorbancy). The quantity of reduced formazan corresponds to the number of vital cells in the culture. […]\n(§2) The cell suspensions that were prepared and diluted according to the particular cell type and the expected target cell density (2,500–30,000 cells per well based on cell growth characteristics) were added by pipette (80 μl) into 96/well microtiter plates. […] Usually, test compounds were evaluated at six 4-fold dilutions. […] The tumour cell survival (TCS) was calculated using the following equitation: TCS=(ODdrug exposed well/mean ODcontrol wells)×100%. […]"}, "[2]": {"system": "U87MG human glioblastoma", "test": "MTT cytotoxicity assay, U87MG", "type": "cell-based", "conditions": "72 hours, read-out: TCS50", "description": "as §1, §2"}, "[3]": {"system": "Saos2 human, p53−/−, Rb−/−", "test": "MTT cytotoxicity assay, Saos2", "type": "cell-based", "conditions": "72 hours, read-out: TCS50", "description": "as §1, §2"}, "[4]": {"system": "BT549 human breast cancer, p53mut/mut", "test": "MTT cytotoxicity assay, BT549", "type": "cell-based", "conditions": "72 hours, read-out: TCS50", "description": "as §1, §2"}, "[5]": {"system": "DU145 human prostate cancer, androgen independent, Rb−/−", "test": "MTT cytotoxicity assay, DU145", "type": "cell-based", "conditions": "72 hours, read-out: TCS50", "description": "as §1, §2"}, "[6]": {"system": "HT-29 human colon cancer", "test": "MTT cytotoxicity assay, HT-29", "type": "cell-based", "conditions": "72 hours, read-out: TCS50", "description": "as §1, §2"}, "[7]": {"system": "OVCAR-3 human ovarian cancer", "test": "MTT cytotoxicity assay, OVCAR-3", "type": "cell-based", "conditions": "72 hours, read-out: TCS50", "description": "as §1, §2"}, "[8]": {"system": "Caco-2 human colon cancer", "test": "MTT cytotoxicity assay, Caco-2", "type": "cell-based", "conditions": "72 hours, read-out: TCS50", "description": "as §1, §2"}, "[9]": {"system": "MEL-3 human melanoma", "test": "MTT cytotoxicity assay, MEL-3", "type": "cell-based", "conditions": "72 hours, read-out: TCS50", "description": "as §1, §2"}, "[10]": {"system": "K562-CdA human promyelocytic leukemia, cladrubin resistant", "test": "MTT cytotoxicity assay, K562-CdA", "type": "cell-based", "conditions": "72 hours, read-out: TCS50", "description": "as §1, §2"}, "[11]": {"system": "K562-GEM human promyelocytic leukemia, gemcitabin resistant", "test": "MTT cytotoxicity assay, K562-GEM", "type": "cell-based", "conditions": "72 hours, read-out: TCS50", "description": "as §1, §2"}, "[12]": {"system": "CEM human T-lymphoblastic leukemia", "test": "MTT cytotoxicity screening assay, CEM", "type": "cell-based", "description": "One of the parameters used as the basis for colorimetric assays is the metabolic activity of viable cells. For example, a microtiter assay which uses the tetrazolium salt MTT is now widely used to quantitate cell proliferation and cytotoxicity [Hajdúch M, Mihál V, Minarík J, Fáber E, Safárová M, Weigl E, Antálek P.: Cytotechnology, 1996, 19, 243–245]. For instance, this assay is used in drug screening programs and in chemosensitivity testing. Because tetrazolium salts are cleaved only by metabolically active cells, these assays exclusively detect viable cells. In the case of the MTT assay, yellow soluble tetrazolium salt is reduced to a coloured water-insoluble formazan salt. After it is solubilized, the formazan formed can easily and rapidly be quantified in a conventional ELISA plate reader at 570 nm (maximum absorbancy). The quantity of reduced formazan corresponds to the number of vital cells in the culture.\nHuman T-lymphoblastic leukaemia cell line CEM was used for routine screening of these compounds. […] The cells were maintained in Nunc/Corning 80 cm^2 plastic tissue culture flasks and cultured in cell culture medium (DMEM with 5 g/l glucose, 2 mM glutamine, 100 U/ml penicillin, 100 μg/ml streptomycin, 10% foetal calf serum and sodium bicarbonate). Individual compounds were dissolved in 10% diiethylsulfoxide/saline, pH 8.0.\nThe cell suspensions that were prepared and diluted according to the particular cell type and the expected target cell density (2,500–30,000 cells per well based on cell growth characteristics) were added by pipette (80 μl) into 96/well microtiter plates. Inoculates were allowed a pre-incubation period of 24 hours at 37° C. and 5% CO2 for stabilisation. Four-fold dilutions of the intended test concentration were added at time zero in 20 μl aliquots to the microtiter plate wells. Usually, test compounds were evaluated at six 4-fold dilutions. In routine testing, the highest well concentration was 250 μM, but it may differ, depending on the agent. All drug concentrations were examined in duplicate. Incubations of cells with the test compounds lasted for 72 hours at 37° C., in 5% CO2 atmosphere and 100% humidity. At the end of the incubation period, the cells were assayed by using the MTT assay. […] After this incubation period, formazan was solubilized by the addition of 100 μl/well of 10% SDS in water (pH=5.5) followed by further incubation at 37° C. overnight The optical density (OD) was measured at 540 nm with the Labsystem iEMS Reader MF(UK). The tumour cell survival (TCS) was calculated using the following equitation: TCS=(ODdrug exposed well/mean ODcontrol wells)×100%. The TCS50 value, the drug concentration lethal to 50% of the tumour cells, was calculated from the obtained dose response curves. […]"}, "[13]": {"system": "CEM-DNR bulk human T-lymphoblastic leukemia, daunorubicin resistant", "test": "MTT cytotoxicity assay, CEM-DNR bulk", "type": "cell-based", "conditions": "72 hours, read-out: TCS50", "description": "as §1, §2"}, "[14]": {"system": "CEM-VCR 1/F3 human T-lymphoblastic leukemia, vincristin resistant", "test": "MTT cytotoxicity assay, CEM-VCR 1/F3", "type": "cell-based", "conditions": "72 hours, read-out: TCS50", "description": "as §1, §2"}, "[15]": {"system": "H3 histone (Lys9)", "test": "Histone acetylation, Western blot in CEM cells", "type": "cell-based, human", "description": "CEM cells were cultured in Dulbeco's modified essential medium with 4.5 g dextrose/l, 10% of foetal calf serum, 2 mM glutamine, 100 U/ml penicillin and 100 μg/ml streptomycin with/without the indicated concentrations of HDAC inhibitor TSA or I.3. At selected time points, cells were harvested, washed in ice cold Hank's balanced salt solution and solubilized on ice using SDS-PAGE sample buffer containing protease and phosphatase inhibitors (10 μg/ml of leupeptin, 10 μg/ml of aprotinin, 10 μg/ml of soybean trypsin inhibitor, 100 μmol of benzamide, 1 mM of sodium vanadate, 1 mM of NaF, 1 mM of phenylphosphate) and boiled immediately.\nTotal cellular proteins (100 μg/well) were separated on SDS-PAGE electrophoresis, blotted on polyvinyldifluoride membranes and acetylated histone was detected using a anti-acetyl(Lys9)-histone H3 rabbit polyclonal antibody (Cell Signalling Technology, Beverly, Mass.; Cat# 9671L) and visualized by chemilumniuscence (ECL-Western Blotting System, Amersham). Details of the Western blot technique are described in Ausubel, F. M., Brent, R, Kingston, R. E., Moore, D. D., Seidman, J. G., Smith, J. A., Struhl, K. (Eds): Short Protocols in Molecular. Biology, 2nd edition, John Wiley & Sons, New York, Chichester, Brisbane, Toronto, Singapore, 1992, page 10–33–10–35."}}, "note": "Where two headings read alike, the source gives them in different places.", "data": [{"compound": "CC(=O)OC[C@@]1(C(=O)O)CC[C@]2(C)[C@H](CC[C@@H]3[C@@]4(C)CC[C@H](OC(C)=O)C(C)(C)[C@@H]4CC[C@]32C)C1=O", "note": "[I.3, 3β,28-diacetoxy-18-oxo-19,20,21,29,30-pentanorlupan-22-oic acid]", "values": [{"measurement": "IC50", "setting": "[1]", "value": 1200, "unit": "nM"}, {"measurement": "IC50", "setting": "[2]", "value": 5100, "unit": "nM"}, {"measurement": "IC50", "setting": "[3]", "value": 1800, "unit": "nM"}, {"measurement": "IC50", "setting": "[4]", "value": 2000, "unit": "nM"}, {"measurement": "IC50", "setting": "[5]", "value": 800, "unit": "nM"}, {"measurement": "IC50", "setting": "[6]", "value": 1600, "unit": "nM"}, {"measurement": "IC50", "setting": "[7]", "value": 1000, "unit": "nM"}, {"measurement": "IC50", "setting": "[8]", "value": 3000, "unit": "nM"}, {"measurement": "IC50", "setting": "[9]", "value": 1300, "unit": "nM"}, {"measurement": "IC50", "setting": "[10]", "value": 300, "unit": "nM"}, {"measurement": "IC50", "setting": "[11]", "value": 900, "unit": "nM"}, {"measurement": "IC50", "setting": "[12]; CEM cells, as stated in the histone acetylation study, read-out: IC50", "value": 2000, "unit": "nM"}, {"measurement": "IC50", "setting": "[12]; CEM, MTT assay, 72 hours, read-out: TCS50", "value": 1000, "unit": "nM"}, {"measurement": "IC50", "setting": "[13]", "value": 1100, "unit": "nM"}, {"measurement": "IC50", "setting": "[14]", "value": 3300, "unit": "nM"}, {"measurement": "time points showing histone acetylation", "setting": "[15]; 2 μM (IC50)", "value": "45 to 120", "unit": "min"}, {"measurement": "time to appearance of acetylated histone", "setting": "[15]; 20 μM (10×IC50)", "value": 30, "unit": "min"}, {"measurement": "acetylation of H3 histone in Lys9 position", "setting": "[15]; Western blot (FIG. 5)", "value": "rapidly acetylated"}]}]}
